{
  "source": "patent US11744791B2",
  "about": "“Cosmetic composition comprising amide-based compound” (Neopharm Co., Ltd., priority 2020, dated 2023)",
  "key": {"PPAR-γ": {"test_system": "PPAR-γ", "test": "Analysis of expression level of PPAR-γ (Western blot) in sebocytes", "assay_type": "cell-based", "conditions": "human sebocytes, 24 hours", "experimental": "An expression level of PPAR-γ was determined through Western blot in Examples and Comparative Examples of the present invention.\nSpecifically, human sebocytes were cultured in a 12-well plate containing a Dulbecco's modified eagle medium (DMEM)/F12 (1:1) medium supplemented with 10% fetal bovine serum (FBS) to attach 1.5×10^5 (1 mL/well) sebocytes to the 12-well plate. The sebocytes were cultured for 24 hours, and the medium was replaced with a serum-free medium. Then, an experimental group in which the cells were treated with each of the compounds of Examples or Comparative Examples was cultured for 24 hours, and the cells were then recovered. Thereafter, each of these samples was subjected to Western blot to analyze an expression level of PPAR-γ in the sebocytes. A sample (100 μM) of Example 1 or 2 or Comparative Example 1 or 2 including the amide-based compound having a structure shown in the following Table 1 was used as the sample. Also, a sample treated with 10 μM IGF-1 was used as the positive control, and the control in which the cells were not treated with the sample was used as the comparison group."}, "CD44": {"test_system": "CD44", "test": "Analysis of expression level of CD44 in adipose tissue-derived mesenchymal stem cells", "assay_type": "cell-based, human", "conditions": "hADSCs, sample 100 μM", "experimental": "For flow cytometric analysis of the adipose tissue-derived stem cells of Examples and Comparative Examples of the present invention, an expression level of CD44 was measured. For this purpose, each of the samples was added to each medium. A sample (100 μM) of Example 1 or 2 or Comparative Example 1 or 2 including the amide-based compound having a structure shown in the following Table 1. Also, a sample treated with 10 μM IGF-1 was used as the positive control, and the control in which the cells were not treated with the sample was used as the comparison group.\nSpecifically, RNA was isolated from human adipose tissue-derived mesenchymal stem cells (hADSCs) according to the manufacturer's instructions using an easy BLUE reagent. The isolated RNA was dissolved in distilled water supplemented with diethyl procarbonate (DEPC), and the absorbance was measured at 260 nm, and a concentration of the RNA was quantified, and then used for experiments. Then, an expression level of CD44 in the adipose tissue-derived stem cells was analyzed."}, "loricrin": {"test_system": "loricrin", "test": "Expression level of loricrin gene in keratinocytes (Real-Time PCR)", "assay_type": "cell-based, human", "conditions": "sample 100 μM, 24 hours", "experimental": "(§1) To determine effects of the samples of Examples and Comparative Examples of the present invention on promotion of expression of moisturizing factors, expression levels of filaggrin and loricrin were measured.\n(§2) Specifically, keratinocytes commercially available from Invitrogen Corp. were cultured for a predetermined period of time in an EpiLife medium (keratinocyte growth media:keratinocyte growth medium) supplemented with a human keratinocyte growth supplement (HKGS), subcultured three times, and then used. The keratinocytes which were subcultured 3 times were cultured to a confluence of 70 to 80% in a 6-well plate, and each of the wells was separately treated with each of the samples. Thereafter, the cells were cultured for a total of 24 hours. RNA of the keratinocytes was extracted from the cultured cells using an easy BLUE reagent, and cDNA was synthesized using a SuperScript reverse transcriptase III kit. A 7500 Fast Real-Time PCR for genetic comparison was performed using a 2×TaqMan universal PCR mixture (10 μL), a 20×TaqMan expression assay mix (1 μL), cDNA (50 ng), and primers (Filaggrin: Hs00856927_g1*, Loricrin: Hs01894962_s1*). Also, a sample treated with 10 μM IGF-1 was used as the positive control, and the control in which the cells were not treated with the sample was used as the comparison group."}, "filaggrin": {"test_system": "filaggrin", "test": "Expression level of filaggrin gene in keratinocytes (Real-Time PCR)", "assay_type": "cell-based, human", "conditions": "sample 100 μM, 24 hours", "experimental": "as §1, §2"}},
  "data": [
    {"compound": "IGF-1: positive control, sample treated with 10 μM IGF-1 [reference compound]", "values": [
      {"measurement": "expression of PPAR-γ (in words)", "setting": "PPAR-γ; IGF-1 10 μM, samples 100 μM", "result": "promoted"}
    ]},
    {"compound": "CCCCCC(=O)NCC(O)CO", "note": "(stereo not shown) [Example 2, N-(2,3-dihydroxypropyl)hexanamide]", "values": [
      {"measurement": "effect of improving the expression of PPAR-γ", "setting": "PPAR-γ; sample 100 μM", "result": 140.8, "unit": "%"}
    ]},
    {"compound": "CCCCCCCC(=O)NCCO", "note": "[Comparative Example 2, N-(2-hydroxyethyl)octanamide, reference compound]", "values": [
      {"measurement": "expression level of CD44 (in words), compared to the control", "setting": "CD44", "result": "lower expression level of CD44"},
      {"measurement": "inhibited the expression of PPAR-γ, compared to the control", "setting": "PPAR-γ; sample 100 μM", "result": 75.5, "unit": "%"}
    ]},
    {"compound": "CCCCCCCCCC(=O)NC(CO)CO", "note": "[Example 1, N-(2-hydroxy-1-(hydroxymethyl)ethyl)decanamide]", "values": [
      {"measurement": "enhanced expression level of loricrin, compared to the control", "setting": "loricrin", "result": "≥ 400", "unit": "%"},
      {"measurement": "enhanced expression level of filaggrin, compared to the control", "setting": "filaggrin", "result": "≥ 300", "unit": "%"},
      {"measurement": "effect of improving the expression of PPAR-γ", "setting": "PPAR-γ; sample 100 μM", "result": 128.4, "unit": "%"}
    ]}
  ]
}
